Results reported in patent US7803930B2, “Antisense modulation of apolipoprotein B-expression” (Isis Pharmaceuticals, Inc., priority 2002, dated 2010).

Columns and labels:
Assay type in all cases: in vivo, mouse
[1] = test system: liver gene expression profile; lipid metabolism genes; test: Microarray and real-time PCR analysis of liver gene expression in lean versus high-fat fed mice (Example 65); conditions: high fat fed C57Bl/6 mice
Protocol: Male C57Bl/6 mice were divided into the following groups, consisting of 5 animals each: (1) mice on a lean diet, injected with saline (lean control); (2) mice on a high fat diet; (3) mice on a high fat diet injected with 50 mg/kg of the control oligonucleotide 141923 (SEQ ID NO: 858); (4) mice on a high fat diet given 20 mg/kg atorvastatin calcium (Lipitor®, Pfizer Inc.); (5) mice on a high fat diet injected with 10, 25 or 50 mg/kg ISIS 147764 (SEQ ID NO: 109). Saline and oligonucleotide treatments were administered intraperitoneally twice weekly for 6 weeks. Atorvastatin was administered daily for 6 weeks. At study termination, liver samples were isolated from each animal and RNA was isolated for Northern blot qualitative assessment, DNA microarray and quantitative real-time PCR. Northern blot assessment and quantitative real-time PCR were performed as described by other examples herein.
For DNA microarray analysis, hybridization samples were prepared from 10 μg of total RNA isolated from each mouse liver according to the Affymetrix Expression Analysis Technical Manual (Affymetrix, Inc., Santa Clara, Calif.). […] Signal values for each probe set were calculated using the Affymetrix Microarray Suite v5.0 software (Affymetrix, Inc., Santa Clara, Calif.). […]

[2] = High fat fed C57BL/6 mice, 6 week timecourse: serum AST and ALT levels; conditions: for ALT levels: 6 weeks (saline control 25 IU/L); for AST levels: 6 weeks (saline control 65 IU/L)
Protocol: Male C57BL/6 mice (n=8) receiving a high fat diet (60% kcal fat) were evaluated over the course of 6 weeks for the effects of ISIS 147764 on liver enzyme (AST and ALT) levels. Increased levels of the liver enzymes ALT and AST indicate toxicity and liver damage. Control animals received saline treatment (50 mg/kg). […] AST and ALT levels were measured at 6 weeks.

[3] = test system: apolipoprotein B mRNA; test: High fat fed C57BL/6 mice, 6 week timecourse: target mRNA levels in liver; conditions: six weeks
Protocol: Male C57BL/6 mice (n=8) receiving a high fat diet (60% kcal fat) were evaluated over the course of 6 weeks for the effects of treatment with the antisense oligonucleotide, ISIS 147764. Control animals received saline treatment (50 mg/kg). A subset of animals received a daily oral dose (20 mg/kg) atorvastatin calcium (Lipitor®, Pfizer Inc.). All mice, except atorvastatin-treated animals, were dosed intraperitoneally every three days (twice a week), after fasting overnight, with 5, 25, 50 mg/kg ISIS 147764 (SEQ ID No: 109) or saline (50 mg/kg) for six weeks. Serum cholesterol and lipoproteins were analyzed at 0, 2 and 6 week interim timepoints. At study termination, animals were sacrificed 48 hours after the final injections and evaluated for levels of target mRNA levels in liver, cholesterol, lipoprotein, triglyceride, liver enzyme (AST and ALT) and serum glucose levels as well as body, liver, spleen and fat pad weights.
Male C57BL/6 mice (n=8) receiving a high fat diet (60% kcal fat) were evaluated over the course of 6 weeks for the effects of ISIS 147764 on mRNA expression. Control animals received saline treatment (50 mg/kg). Mice were dosed intraperitoneally every three days (twice a week), after fasting overnight, with 5, 25, 50 mg/kg ISIS 147764 (SEQ ID No: 109) or saline (50 mg/kg) for six weeks. At study termination, animals were sacrificed 48 hours after the final injections and evaluated for levels of target mRNA levels in liver.

[4] = Long-term study in lean CD-1 mice (Example 63): serum lipids and indicators of toxicity (ALT, AST, histology, steatosis); conditions: one month
Protocol: In accordance with the present invention, the toxicity of ISIS 301012 (SEQ ID NO: 247) is investigated in a long-term, 3 month study in mice. Two-month old male and female CD-1 mice (Charles River Laboratories, Wilmington, Mass.) are dosed with 2, 5, 12.5, 25 or 50 mg/kg of ISIS 301012 twice per week for first week, and every 4 days thereafter. The mice are maintained on a standard rodent diet. Saline and control oligonucleotide animals serve as controls and are injected on the same schedule. Each treatment group contains 6 to 10 mice of each sex, and each treatment group is duplicated, one group for a 1 month study termination, the other for a 3 month study termination. After the 1 or 3 month treatment periods, the mice are sacrificed and evaluated for target expression in liver, lipid levels in serum and indicators of toxicity. Liver samples are procured, RNA is isolated and apolipoprotein B mRNA expression is measured by real-time PCR as described in other examples herein. Serum lipids, including total cholesterol, LDL-cholesterol, HDL-cholesterol and triglycerides, are evaluated by routine clinical analysis using an Olympus Clinical Analyzer (Olympus America Inc., Melville, N.Y.). Ratios of LDL-cholesterol to HDL-cholesterol and total cholesterol to HDL-cholesterol are also calculated. Analyses of serum ALT and AST, inflammatory infiltrates in tissue and basophilic granules in tissue provide an assessment of toxicities related to the treatment. Hepatic steatosis, or accumulation of lipids in the liver, is assessed by routine histological analysis with oil red 0 stain and measurement of liver tissue triglycerides using a Triglyceride GPO Assay (Sigma-Aldrich, St. Louis, Mo.).
The toxicity study also includes groups of animals allowed to recover following cessation of oligonucleotide treatment. Both male and female CD-1 mice (Charles River Laboratories, Wilmington, Mass.) are treated with 5, 10, 50 mg/kg of ISIS 301012 twice per week for the first week and every 4 days thereafter. Saline and, control oligonucleotide injected animals serve as controls. Each treatment group includes 6 animals per sex. After 3 months of treatment, animals remain untreated for an additional 3 months, after which they are sacrificed. The same parameters are evaluated as in the mice sacrificed immediately after 3 months of treatment.
Additionally, the expected dose-response toxicities were observed. ALT and AST levels, measured by routine clinical procedures on an Olympus Clinical Analyzer (Olympus America Inc., Melville, N.Y.), are increased in mice treated with 25 or 50 mg/kg of ISIS 301012. Tissues were prepared for analysis by routine histological procedures.

| Substance | mRNA expression of lipid metabolism genes (hepatic lipase, fatty acid synthase, ABCD2, FABP2, stearol CoA desaturase-1, HMG CoA reductase), real-time PCR [1] | liver gene expression profile (microarray) ([1]; 10, 25 or 50 mg/kg i.p. twice weekly, 6 weeks) | ALT levels ([2]; 5 mg/kg) [IU/L] | AST levels ([2]; 5 mg/kg) [IU/L] | ALT levels ([2]; 25 mg/kg) [IU/L] | AST levels ([2]; 25 mg/kg) [IU/L] | ALT levels ([2]; 50 mg/kg) [IU/L] | AST levels ([2]; 50 mg/kg) [IU/L] | reduction of target mRNA levels in liver ([3]; 5 mg/kg i.p. every three days) [%] | reduction of target mRNA levels in liver ([3]; 25 mg/kg i.p. every three days) [%] | reduction of target mRNA levels in liver ([3]; 50 mg/kg i.p. every three days) [%] | ALT and AST levels ([4]; 25 or 50 mg/kg) | doses at which basophilic granules in liver and kidney tissue were observed [4] | doses at which mild lymphohistiocytic infiltrates were observed in various tissues [4] | steatosis (oil red O staining) [4] |
| --- | --- | --- | --- | --- | --- | --- | --- | --- | --- | --- | --- | --- | --- | --- | --- |
| GTCCCTGAAGATGTCAATGC (2'-MOE gapmer, further chemistry not given here) [ISIS 147764] | reduction in mRNA expression | drives the gene expression profile in high fat fed mice to the profile observed in lean mice | 50 | 105 | 70 | 70 | 100 | 80 | 15 | 75 | 88 | – | – | – | – |
| ISIS 301012: SEQ ID NO: 247, antisense oligonucleotide targeted to human apolipoprotein B (antisense GCCTCAGTCTGCTTCGCACC; chemistry not given here) | – | – | – | – | – | – | – | – | – | – | – | increased | above 12.5 mg/kg | above 12.5 mg/kg | no steatosis |
